Experimental data: US11782064B2, “Methods for simultaneous measurement of multiple biological signals from spectrally identical fluorescent reporters” (Massachusetts Institute of Technology, priority 2019, dated 2023)

Tested on: cultured mouse hippocampal neurons
Assay: Multiplexed imaging of four or five reporters under forskolin, PMA or DHPG
Format: cell-based
Procedure: Live neuron imaging was performed on a spinning disk confocal microscope (a Yokogawa® CSU-W1 Confocal Scanner Unit on a Nikon® Eclipse T1 microscope) equipped with a 40×1.15 NA water immersion objective (Nikon® MRD77410) and a Zyla® PLUS 4.2 Megapixel camera controlled by NIS-Elements® AR software. The filter set for GFP was used for imaging GFP intensity-based reporters (GCaMP6f and cAMPr), and the filter set for GFP and the 405 nm excitation filter was used for imaging 488 nm/405 nm excitation ratiometric reporters (ExRaiAKAR and ExRaiCKAR). The filter set for RFP was used for imaging RFP intensity-based reporters (RAB_EKARev). For electrophysiological characterizations of GCaMP6f and S1-GCaMP6f (FIGS. 8D-G, 9A-Q), neurons were recorded in the GFP emission channel at a single focal plane at 20 milliseconds per frame (50 Hz). In the characterization and spatially multiplexed imaging experiments in FIGS. 9R-V, 10D-10G, 10M-10O, neurons were recorded in the GFP emission channel at a single focal plane at 50 milliseconds per frame (20 Hz). […]

Structure (SMILES)	signaling activities induced in neurons (100 ng/mL PMA for 3 minutes)	signaling activities induced in neurons (100 μM DHPG for 3 minutes)
CCCCCCCCCCCCCC(=O)O[C@@H]1[C@@H](C)[C@@]2(O)[C@@H](C=C(CO)C[C@]3(O)C(=O)C(C)=C[C@@H]23)[C@@H]2C(C)(C)[C@]12OC(C)=O [PMA, phorbol 12-myristate 13-acetate]	increases of PKC activity	
N[C@H](C(=O)O)c1cc(O)cc(O)c1 [DHPG, (S)-3,5-Dihydroxyphenylglycine]		produced increases in cAMP, PKA, PKC, and ERK levels
